# From patent US12208080B2, “Compositions and methods for modulation of extracellular vesicle release and treatment of neurological disorders” (GEORGE MASON RESEARCH FOUNDATION, INC., priority 2018, dated 2025)
# Columns and labels:
# [1] = system: autophagy proteins (p62 and LC3) in U1 cells; test: Autophagy proteins over time in U1 cells and their EVs (Western blot); type: cell-based
# Procedure: FIGS. 18A-18B are gels showing CBD promotes autophagy turnover, resulting in a decrease in extracellular autophagosomal secretion. A) U1 cells (1×10^6) were treated±CBD (10 μM) for the following incubation periods: 0, 6, 24, and 48 hours. Cells were pelleted and lysed, exosomes from supernatants were enriched with NT80/82 beads overnight at 4° C. Samples were run through SDS-PAGE and western blotted for autophagy proteins (p62 and LC3), and Actin. B) U1 cells (1×10^6) were treated±10 μM CBD (every day), Rapamycin (50 nM), INK128 (50 nM), Bafilomycin A1 (50 nM), SB 203580 (20 μM), Wortmannin (2 nM) for a 5-day incubation period. Cells were pelleted and lysed, exosomes from supernatants were enriched using NT80/82 beads overnight at 4° C. Samples were run through SDS-PAGE and western blotted for autophagy proteins (p62, LC3, ATG12-ATG5, ATG12, Beclin-1), and Actin.
# FIGS. 19A-19E are graphs showing normalized densitometry analysis of CBD treatment of HIV-1 infected monocytes over time and autophagy. Intracellular (A) p62, (B) LC3 I, and (C) LC3 II levels, and extracellular (D) p62, and (E) LC3 I levels were counted on the Western blot data from FIG. 5A through densitometry analysis, followed by normalization to Actin levels.
# We have previously described a complex relationship between the intracellular autophagy pathway, secretory autophagy pathway, and EVs, where regulation of the autophagy pathway in infected cells can result in the blocking of viral protein degradation and, in turn, the export of viral products through EVs. Based on this, we next asked whether CBD had any effect on EV release by examining the secretory autophagy pathway. In order to evaluate the levels of intracellular autophagy proteins in HIV-1 infected cells, U1 cells were treated with CBD (10 μM) for 0, 6, 24, and 48 hours, followed by Western blot analysis for autophagosomal markers, p62 and LC3 I/II (FIG. 18A). […] In order to examine any alterations that CBD might have on secretory autophagy in HIV-1 infected monocytes, EVs were enriched from the supernatants using NT80/82 and analyzed by Western blot for changes in secreted autophagosome proteins. […] This is in line with numerous studies which have shown the HIV-1 viral proteins Tat and Nef to be involved in autophagy deregulation in infected cells.
# [2] = system: HIV-1 infected monocytes (U1); test: Western blot/densitometry of intracellular viral and ESCRT proteins in U1 cells; type: cell-based
# Procedure: FIGS. 15A-15C are graphs and gels showing cannabidiols lower intracellular viral transcription and downstream viral products. U1 cells (1×10^6) were treated with a titration of CBD (1, 5, 10 μM) and THC (1, 5, 10 μg/mL) every day for 5 days. A) Intracellular RNA was isolated and analyzed through RT-qPCR for HIV-1 viral transcripts TAR and env. Each bar represents an average of three independent replicates. B) U1 cells (2×10^6) were treated with a titration of CBD (1, 5, 10 μM) every day for 5 days. Cells pellets were lysed, run through SDS-PAGE, and western blotted for (p-)/NF-κB, autophagosomal markers (p63, LC3), EV biogenesis marker VPS4, viral markers (gp120, Nef, p24), and Actin. C) U1 cells (5×10^6) were treated±CBD (10 μM) and Flavopiridol hydrochloride (50 nM; indicated as Flavo) and incubated for the following time points: 0 minutes, 2 hours and 6 hours. Cells were cross-linked with 1% formaldehyde solution and ChIP-ed for IgG and Pol II. ChIP DNA samples were analyzed via qPCR for TAR and env. Student's t-test was used for statistical analysis, where *p-value≤0.05; **p-value≤0.01, ***p-value≤0.001.
# FIGS. 16A-16E are graphs showing normalized densitometry analysis of CBD lowering intracellular […] in HIV-1 infected monocytes. (A) Nef, (B) Pr55, (C) p24, (D) VPS4, and (E) CHMP6 densitometry counts were performed on the Western blot data from FIG. 4B, all of which were normalized to Actin levels.
# Laemmli buffer was added to sample cell lysates (10-20 μg) or NT80/82 pellets. Lysates were heated at 95° C. for 3 min and 15 μL of sample was loaded onto a 4-20% Tris/glycine gel (Invitrogen). When analyzing NT80/82 pellets, samples were heated at 95° C. for 3 min, vortexed, and then heated two additional times to release captured material from NT80/82 beads. Following the release of captured cargo, the total sample was then loaded on to a 4-20% Tris-Glycine gel (Invitrogen). Gels were run at 100 V and transferred onto Immobilon PVDF membranes (Millipore) at 50 mA overnight. Membranes were blocked in 5% milk in PBS with 0.1% Tween-20 (PBS-T) for 2 h at 4° C., then incubated overnight at 4° C. in PBS-T with the appropriate primary antibody ((α-p24 (Cat: 4121; NIH AIDS Reagent Program), α-Nef (Cat: 3689; NIH AIDS Reagent Program), α-gp120 (Cat: 522; NIH AIDS Reagent Program), α-CD81 (Cat: EXOAB-CD81A-1; SBI), α-VPS4 (Cat: sc-32922; Santa Cruz Biotechnology), α-CHMP6 (Cat: sc-67231; Santa Cruz Biotechnology), α-Actin (ab-49900; Abcam), α-CD63 (Cat: EXOAB-CD63A-1; Systems Biosciences), α-SQSTM1/p62 (Cat: 5114; Cell Signaling Technology), α-MAP LC3 α/β (Cat: sc-398822; Santa Crux Biotechnology), α-Alix (Cat: sc-49268; Santa Cruz Biotechnology), α-ATG12 (Cat: sc-271688; Santa Cruz Biotechnology), α-Beclin 1 (Cat: sc-48341; Santa Cruz Biotechnology)). Membranes were washed with PBS-T and incubated for 2 h with the indicated HRP-conjugated secondary antibody at 4° C. HRP luminescence was activated with Clarity Western ECL Substrate (Bio-Rad) and visualized by the Molecular Imager ChemiDoc Touch system (Bio-Rad).
# ImageJ software was used to conduct densitometry analysis on the kinase and western blot images. Background measurements were deducted from each lane to account for exposure, followed by normalization of each lane to each respective Actin measurements. […] Percent changes were calculated by subtracting normalized lane measurements from the normalized control lane.
# This is potentially due innate differences in the abundance of these mRNAs. […]
# [3] = 10 μM every day for 5 days, FIG. 16
# [4] = CBD 1, 5, 10 μM every day for 5 days
smiles,measurement,setting,value
"C=C(C)[C@@H]1CCC(C)=C[C@H]1c1c(O)cc(CCCCC)cc1O [CBD, 2-[1R-3-methyl-6R-(1-methylethenyl)-2-cyclohexen-1-yl]-5-pentyl-1,3-benzenediol]",LC3 I in secreted EVs,"[1]; 10 μM, 6, 24, 48 hours vs untreated",overall lower level of LC3 I
same,intracellular LC3 II,"[1]; 10 μM, 6- and 24-hour vs controls",higher levels of LC3 II
same,extracellular (EV) p62,"[1]; 10 μM, from the 6-hour time point onwards vs untreated",lower p62 levels
same,intracellular p62,"[1]; 10 μM, starting at 24-hour, peaking at 48-hour, FIG. 18A",time dependent decrease
same,intracellular LC3 I,"[1]; 10 μM, up to 24 hours vs untreated",decrease in LC3 I levels
same,reduction in intracellular Nef (densitometry),[2]; [3],62%
same,reduction in intracellular Pr55 (densitometry),[2]; [3],99%
same,reduction in intracellular p24 (densitometry),[2]; [3],76%
same,intracellular CHMP6 (ESCRT-III),[2]; [4],slight increase
same,intracellular VPS4,[2]; [4],slight increase
